Assay results published in patent publication US5158942A, “Process of using phospholipid derivatives to inhibit multiplication of the human immunodeficiency virus” (Boehringer Mannheim GmbH, priority 1989, dated 1992).
Converted amounts (≈) assume the structure as drawn.

System: HIV
Assay: Inhibition of HIV replication in HIV infected human T-lymphoma cells or human fetal lung cells; amount of virus determined by new infection of human fetal lung cells
Format: cell-based
Conditions: Human immunodeficiency virus 1, readout: new infection of human fetal lung cells, read-out: IC50-value (concentration which results in an inhibition of the replication of 50%)
Procedure: HIV infected human T-lymphoma cells or human fetal lung cells were treated with the inventive compound by using different concentration ranges of the test compound. The amount of the viruses was then determined by way of new infection of human fetal lung cells. The decrease of the resulting positive HIV-infected cells was regarded as a measure for the antiviral activity of the compound tested.
The following table gives the corresponding concentration, which results in an inhibition of the replication of 50% (IC50 -value): […]

Q: Which IC50 does the source give for `CCCCCCCCCCCCS(=O)(=O)CC(COP(=O)([O-])OCC[N+](C)(C)C)OCCCCCCCCCC` (stereo not shown) [Example 8, 3-Dodecylsulphonyl-2-decyloxypropyl-1-phosphoric acid monocholine ester] here?
A: Its IC50 is 2 µg/mL (≈ 3.26 µM).

Q: Which IC50 does the source give for `CCCCCCCCCCCCOC(COP(=O)([O-])OCC[N+](C)(C)C)CSCCCCCCCCCCCC` (stereo not shown) [Example 4, 3-Dodecylmercapto-2-dodecyloxypropyl-1-phosphoric acid monocholine ester] here?
A: Its IC50 is 4 µg/mL (≈ 6.56 µM).

Q: For `CCCCCCCCCCCSCC(COP(=O)([O-])OCC[N+](C)(C)C)OCCCCCCCCCC` (stereo not shown) [Example 11, 3-Undecylmercapto-2-decyloxypropyl-1-phosphoric acid monocholine ester], which IC50 is on record?
A: Its IC50 is 20 µg/mL (≈ 35.2 µM).

Q: For `CCCCCCCCCCCCCCCCSCC(COP(=O)([O-])OCC[N+](C)(C)C)OCCCCCCCCCC` (stereo not shown) [Example 5, 3-Hexadecylmercapto-2-decyloxypropyl-1-phosphoric acid monocholine ester], which IC50 is on record?
A: The IC50 was 20 µg/mL (≈ 31.3 µM).

Q: For `CCCCCCCCCCCCSCC(COP(=O)([O-])OCC[N+](C)(C)C)NC(=O)CCCCCCCCCC` (stereo not shown) [Example 21, 3-Dodecylmercapto-2-decylcarbonylaminopropyl-1-phosphoric acid monocholine ester], which IC50 is on record?
A: The IC50 was 5 µg/mL (≈ 8.21 µM).

Q: Which IC50 does the source give for `CCCCCCCCCCCOC(COP(=O)([O-])OCC[N+](C)(C)C)C[S+]([O-])CCCCCCCCCCC` (stereo not shown) [Example 24, 3-Undecylsulphinyl-2-undecyloxypropyl-1-phosphoric acid monocholine ester] here?
A: Its IC50 is 4 µg/mL (≈ 6.69 µM).

Q: With `CCCCCCCCCCCCCCCCOC(COP(=O)([O-])OCC[N+](C)(C)C)CSCCCCCCCCCC` (stereo not shown) [Example 6, 3-Decylmercapto-2-hexadecyloxypropyl-1-phosphoric acid monocholine ester] as the molecule, how does the IC50 read?
A: The IC50 was 50 µg/mL (≈ 78.4 µM).

Q: With `CCCCCCCCCCCC[S+]([O-])CC(COP(=O)([O-])OCC[N+](C)(C)C)OCCCCCCCCCC` (stereo not shown) [Example 22, 3-Dodecylsulphinyl-2-decyloxypropyl-1-phosphoric acid monocholine ester] as the molecule, how does the IC50 read?
A: The IC50 was 4 µg/mL (≈ 6.69 µM).

Q: Which IC50 does the source give for `CCCCCCCCCCCCCCSCC(COP(=O)([O-])OCC[N+](C)(C)C)OCCCCCCCCCC` (stereo not shown) [Example 13, 3-Tetradecylmercapto-2-decyloxypropyl-1-phosphoric acid monocholine ester] here?
A: The IC50 was 4 µg/mL (≈ 6.56 µM).

Q: Which IC50 does the source give for `CCCCCCCCCCCCC[S+]([O-])CC(COP(=O)([O-])OCC[N+](C)(C)C)OCCCCCCCCCC` (stereo not shown) [Example 25, 3-Tridecylsulphinyl-2-decyloxypropyl-1-phosphoric acid monocholine ester] here?
A: Its IC50 is 2 µg/mL (≈ 3.27 µM).

Q: For `CCCCCCCCCCCCOC(COP(=O)([O-])OCC[N+](C)(C)C)CS(=O)(=O)CCCCCCCCCC` (stereo not shown) [Example 9, 3-Decylsulphonyl-2-dodecyloxypropyl-1-phosphoric acid monocholine ester], which IC50 is on record?
A: Its IC50 is 2 µg/mL (≈ 3.26 µM).

Q: For `CCCCCCCCCCCCSCC(CSCCCCCCCCCCCC)OP(=O)([O-])OCC[N+](C)(C)C` [Example 20, 1,3-Bis-(dodecylmercapto)-propyl-1-phosphoric acid monocholine ester], which IC50 is on record?
A: The IC50 was 4 µg/mL (≈ 6.39 µM).

System: not given
Assay: not given
Conditions: M. S. Hirsch, J. Infect. Dis., 157, 427-431/1988; cited from earlier work

Q: With `Cc1cn([C@H]2C[C@H](N=[N+]=[N-])[C@@H](CO)O2)c(=O)[nH]c1=O` [AZT, 3'-azido-3'deoxythymidine] as the molecule, how does the “toxicities in the therapeutic range” value read?
A: Its value is “very severe toxicities occurring even in the therapeutic range”.
